The values that follow come from patent US9415047B2, “Use of benzo five-membered nitrogen heterocyclic piperazine or piperidine derivatives” (Liaoning Emmy Biological Pharmaceutical Co., Ltd., priority 2012, dated 2016).

Assay [1] has as its system AD constricted rabbit aorta. The assay can be described thus: Relaxing effects on vascular smooth muscle constricted by adrenaline hydrochloride (AD) in vitro. The following applies: Oryctolagus cuniculus; relaxation of rabbit aorta constricted by adrenaline (10^−5 mol/L); mean±SEM, n=5. Here is the method: Adrenaline hydrochloride (AD) (10^−5 mol/L) was added into a bath tube to induce constriction, when maximal constriction was achieved, the sample was completely flushed, K-H solution was changed for every 20 min. Contents in the tube was balanced for 60 min, when baseline recovered to be stable, the […] was added at the same concentration to induce constriction. When the later maximal constriction response was basically consistent with the former one, the prepared compound solutions were subsequently added, including compound II-1 to II-60 solutions (1×10^−8-1×10^−3 mol/L), compound II-84 to II-123 solutions (1×10^−10-1×10^−2 mol/L) and compound II-124 to II-157 solutions (1×10^−10˜1×10^−3 mol/L), to record the waveforms. Relaxing percentage of the compound was used as Y axis, maximal relaxation response was 100%, negative logarithm of different concentration was used as X axis, to draw dose effect curve (expressed in mean±SEM ( ? ), n=5). Compounds II-2 and II-3 had the most obvious relaxing effects (FIG. 1 and FIG. 8).

Assay [2] deals with high kalium concentration constricted rabbit aorta. The assay can be described thus: Relaxing effects on vascular smooth muscle constricted by high kalium concentration in vitro. The following applies: Oryctolagus cuniculus, relaxation of rabbit aorta constricted by high kalium solution (K+ 60 mmol/L); mean±SEM, n=5. Here is the method: Adrenaline hydrochloride (AD) (10^−5 mol/L) was added into a bath tube to induce constriction, when maximal constriction was achieved, the sample was completely flushed, K-H solution was changed for every 20 min. Contents in the tube was balanced for 60 min, when baseline recovered to be stable, K-H solution in the bath tube was replaced with high kalium concentration solution to induce constriction. When the later maximal constriction response was basically consistent with the former one, the prepared compound solutions were subsequently added, including compound II-1 to II-60 solutions (1×10^−8-1×10^−3 mol/L), compound II-84 to II-123 solutions (1×10^−10-1×10^−2 mol/L) and compound II-124 to II-157 solutions (1×10^−10-1×10^−3 mol/L), to record the waveforms. Relaxing percentage of the compound was used as Y axis, maximal relaxation response was 100%, negative logarithm of different concentration was used as X axis, to draw dose effect curve (expressed in mean±SEM ( ? ), n=5). Compounds II-2 and II-3 had the most obvious relaxing effects (FIG. 2 and FIG. 9).

For `Clc1cccc(N2CCN(CCCCn3cnc4ccccc43)CC2)c1` [II-1, 1-(4-(4-(3-chlorophenyl)piperazine-1-yl)butyl)-1H-benzimidazole], the EC50 in assay [1] is 9.33 µM; in assay [2], 8.91 µM.
With `Clc1cccc(N2CCN(CCCCn3cnc4ccccc43)CC2)c1Cl` [II-3, 1-(4-(4-(2,3-dichlorophenyl)piperazine-1-yl)butyl)-1H-benzimidazole], the EC50 in assay [1] was 0.977 µM; in assay [2], 3.24 µM.
The corresponding values for `COc1ccccc1N1CCN(CCCCn2cnc3ccccc32)CC1` [II-4, 1-(4-(4-(2-methoxyphenyl)piperazine-1-yl)butyl)-1H-benzimidazole] are 11 µM and 16.2 µM.
As for `Cc1nc2ccccc2n1CCCCN1CCN(c2cccc(C(F)(F)F)c2)CC1` [II-5, 2-methyl-1-(4-(4-(3-trifluoromethylphenyl)piperazine-1-yl)butyl)-1H-benzimidazole], the EC50 in assay [1] was 16.6 µM; in assay [2], 29.5 µM.
The corresponding values for `Fc1ccc2ncn(CCCCN3CCN(c4cccc(C(F)(F)F)c4)CC3)c2c1` [II-6, 6-fluoro-1-(4-(4-(3-trifluoromethylphenyl)piperazine-1-yl)butyl)-1H-benzimidazole] are 23.4 µM and 38.9 µM.
As for `c1ccc(N2CCN(CCCn3cnc4ccccc43)CC2)cc1` [II-7, 1-(3-(4-phenylpiperazine-1-yl)propyl)-1H-benzimidazole], the EC50 in assay [1] is 51.3 µM; in assay [2] it was 162 µM.
As to `Fc1cccc(N2CCN(CCCn3cnc4ccccc43)CC2)c1` [II-8, 1-(3-(4-(3-fluorophenyl)piperazine-1-yl)propyl)-1H-benzimidazole], the figures for the 50% effective concentration (EC50) in assay [1] and in assay [2] were 19.5 µM and 38.9 µM, respectively.
Take `Cc1nc2ccccc2n1CCCN1CCN(c2cccc(F)c2)CC1` [II-9, 2-methyl-1-(3-(4-(3-fluorophenyl)piperazine-1-yl)propyl)-1H-benzimidazole]: the EC50 in assay [1] is 42.7 µM; in assay [2], 52.5 µM.
Regarding `N#Cc1cccc(N2CCN(CCCCn3cnc4ccccc43)CC2)c1` [II-10, 1-(4-(4-(3-cyanophenyl)piperazine-1-yl)butyl)-1H-benzimidazole], the results for the EC50 in assay [1] and in assay [2] were 55 µM and 110 µM, respectively.
On to `Cc1ccc(N2CCN(CCCCn3cnc4ccccc43)CC2)cc1` [II-11, 1-(4-(4-(4-methylphenyl)piperazine-1-yl)butyl)-1H-benzimidazole], for which the EC50 in assay [1] was 89.1 µM; in assay [2] it was 141 µM.
In the case of `c1coc(N2CCN(CCCCn3cnc4ccccc43)CC2)c1` [II-12, 1-(4-(4-(2-furyl)piperazine-1-yl)butyl)-1H-benzimidazole], the results for the EC50 in assay [1] and in assay [2] were 44.7 µM and 70.8 µM, respectively.
On to `c1ccc2c(c1)ncn2CCCCN1CCN(c2ccncc2)CC1` [II-13, 1-(4-(4-(4-pyridyl)piperazine-1-yl)butyl)-1H-benzimidazole], for which the EC50 was 38.9 µM in assay [1] and 30.2 µM in assay [2].
For `c1cnc(N2CCN(CCCCn3cnc4ccccc43)CC2)nc1` [II-14, 1-(4-(4-(2-pyrimidinyl)piperazine-1-yl)butyl)-1H-benzimidazole], the EC50 in assay [1] was 60.3 µM; in assay [2], 89.1 µM.
In the case of `c1ccc2c(c1)ncn2CCCCN1CCN(C2CCCCC2)CC1` [II-15, 1-(4-(4-(1-cyclohexyl)piperazine-1-yl)butyl)-1H-benzimidazole], the EC50 in assay [1] was 33.9 µM; in assay [2], 30.2 µM.
With `c1ccc2c(N3CCN(CCCCn4cnc5ccccc54)CC3)cccc2c1` [II-16, 1-(4-(4-(1-naphthyl)piperazine-1-yl)butyl)-1H-benzimidazole], the results for the EC50 in assay [1] and in assay [2] were 51.3 µM and 64.6 µM, respectively.
Take `c1ccc2nc(N3CCN(CCCCn4cnc5ccccc54)CC3)cnc2c1` [II-17, 1-(4-(4-(2-quinoxalinyl)piperazine-1-yl)butyl)-1H-benzimidazole]: the EC50 in assay [1] is 29.5 µM; in assay [2], 49 µM.
Consider `Fc1ccc2c(N3CCN(CCCCn4cnc5ccccc54)CC3)noc2c1` [II-18, 1-(4-(4-(3-(6-fluorobenzisoxazolyl))piperazine-1-yl)butyl)-1H-benzimidazole], for which the EC50 in assay [1] is 13.8 µM; in assay [2], 18.2 µM.
In the case of `Fc1ccc2c(N3CCN(CCCCn4cnc5ccccc54)CC3)nsc2c1` [II-19, 1-(4-(4-(3-(6-fluorobenzisothiazolyl))piperazine-1-yl)butyl)-1H-benzimidazole], the figures for the EC50 in assay [1] and in assay [2] were 66.1 µM and 87.1 µM, respectively.
For the molecule `Fc1ccc2c(N3CCN(CCCCn4cnc5ccccc54)CC3)coc2c1` [II-21, 1-(4-(4-(3-(6-fluorobenzofuranyl))piperazine-1-yl)butyl)-1H-benzimidazole], the EC50 in assay [1] was 89.1 µM; in assay [2], 178 µM.
Regarding `Fc1ccc2c(N3CCN(CCCOn4cnc5ccccc54)CC3)noc2c1` [II-22, 1-(3-(4-(3-(6-fluorobenzisoxazolyl))piperazine-1-yl)propoxyl)-1H-benzimidazole], the values for the EC50 in assay [1] and in assay [2] were 28.2 µM and 22.9 µM, respectively.
`FC(F)(F)c1cccc(N2CCN(CCCOn3cnc4ccccc43)CC2)c1` [II-23, 1-(4-(4-(3-trifluoromethylphenyl)piperazine-1-yl)propoxyl)-1H-benzimidazole]: the EC50 was 19.1 µM in assay [1] and 38 µM in assay [2].
The corresponding values for `Clc1cccc(N2CCN(CCCOn3cnc4ccccc43)CC2)c1` [II-24, 1-(4-(4-(3-chlorphenyl)piperazine-1-yl)propoxyl)-1H-benzimidazole] are 30.2 µM and 30.2 µM.
With `FC(F)(F)c1cccc(N2CCN(CCCCn3cnc4ccc(Cl)cc43)CC2)c1` [II-25, 6-chloro-1-(4-(4-(3-trifluoromethylphenyl)piperazine-1-yl)butyl)-1H-benzimidazole], the EC50 is 16.2 µM in assay [1] and 29.5 µM in assay [2].
With `N#Cc1ccc2ncn(CCCCN3CCN(c4cccc(C(F)(F)F)c4)CC3)c2c1` [II-26, 6-cyano-1-(4-(4-(3-trifluoromethylphenyl)piperazine-1-yl)butyl)-1H-benzimidazole], the EC50 in assay [1] was 64.6 µM; in assay [2], 102 µM.
On to `COC(=O)c1ccc2ncn(CCCCN3CCN(c4cccc(C(F)(F)F)c4)CC3)c2c1` [II-27, 6-methoxycarbonyl-1-(4-(4-(3-trifluoromethylphenyl)piperazine-1-yl)butyl)-1H-benzimidazole], for which the results for the EC50 in assay [1] and in assay [2] were 49 µM and 87.1 µM, respectively.
In the case of `FC(F)(F)c1cccc(N2CCN(CCCCCn3c(Cl)nc4ccccc43)CC2)c1` [II-28, 2-chloro-1-(5-(4-(3-trifluoromethylphenyl)piperazine-1-yl)pentyl)-1H-benzimidazole], the figures for the EC50 in assay [1] and in assay [2] were 102 µM and 141 µM, respectively.
For `Clc1cccc(N2CCN(CCCCn3nnc4ccccc43)CC2)c1` [II-29, 1-(4-(4-(3-chlorophenyl)piperazine-1-yl)butyl)-1H-benzotriazole], the values for the EC50 in assay [1] and in assay [2] were 0.977 µM and 2.29 µM, respectively.
Regarding `Fc1cccc(N2CCN(CCCCn3nnc4ccccc43)CC2)c1` [II-30, 1-(4-(4-(3-fluorophenyl)piperazine-1-yl)butyl)-1H-benzotriazole], the EC50 was 3.02 µM in assay [1] and 7.41 µM in assay [2].
The corresponding values for `Fc1ccc2nnn(CCCCN3CCN(c4cccc(C(F)(F)F)c4)CC3)c2c1` [II-32, 6-fluoro-1-(4-(4-(3-trifluoromethylphenyl)piperazine-1-yl)butyl)-1H-benzotriazole] are 3.89 µM and 24.5 µM.
As for `Cc1cc2nnn(CCCCN3CCN(c4cccc(C(F)(F)F)c4)CC3)c2cc1C` [II-33, 5,6-dimethyl-1-(4-(4-(3-trifluoromethylphenyl)piperazine-1-yl)butyl)-1H-benzotriazole], the EC50 was 40.7 µM in assay [1] and 115 µM in assay [2].
In the case of `c1ccc2c(c1)nnn2CCCCN1CCN(c2nsc3ccccc23)CC1` [II-34, 3-(4-(4-(1H-benzotriazole-1-yl)butyl)piperazine-1-yl)benzisothiazole], the EC50 in assay [1] is 0.00851 µM; in assay [2], 17 µM.
The corresponding values for `c1ccc2c(c1)nnn2CCCCN1CCN(c2noc3ccccc23)CC1` [II-35, 3-(4-(4-(1H-benzotriazole-1-yl)butyl)piperazine-1-yl)benzisoxazole] are 12.9 µM and 32.4 µM.
Regarding `Fc1ccc2c(N3CCN(CCCCn4nnc5ccccc54)CC3)noc2c1` [II-36, 6-fluoro-3-(4-(4-(1H-benzotriazole-1-yl)butyl)piperazine-1-yl)benzisoxazole], the EC50 in assay [1] and in assay [2] was 4.9 µM in each case.
